Data on six compounds can be found in ChEMBL document CHEMBL5500415, “Design of a Lead-Like Cysteine-Targeting Covalent Library and the Identification of Hits to Cys55 of Bfl-1” (J Med Chem, 2024).

One data set concerns the target T1, Bcl-2-related protein A1 (Homo sapiens, UniProt Q16548).
T1 sequence (Q16548 whole entry): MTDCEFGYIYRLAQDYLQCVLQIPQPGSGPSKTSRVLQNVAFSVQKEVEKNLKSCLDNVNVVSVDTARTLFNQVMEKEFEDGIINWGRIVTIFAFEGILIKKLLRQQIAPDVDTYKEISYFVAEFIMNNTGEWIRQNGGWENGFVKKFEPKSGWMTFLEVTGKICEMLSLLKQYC
Nature of the data set: Inhibition of human recombinant N-terminal his tagged Bfl-1 (1 to 151 residues) expressed in Escherichia coli BL21-Gold (DE3) cells using HyLite Fluor 647-labeled BIM peptide as substrate incubated for 120 mins by TR-FRET assay.

Data set [1] can be described thus: Lipophilicity, logD of compound at pH 7.4 by shake-flask method. The data set is classed as physicochemical. To be noted: buffer.
Data set [2] can be described thus: GSH reactivity assessed as half life at pH 7.4 incubated for 24 hrs by LC-UV-MS analysis. The format is physicochemical. The following applies: glutathione (GSH) solution.
The target of data set [3] is T2, Bcl-2-related protein A1 (Homo sapiens) (UniProt Q16548).
T2 sequence (whole entry): T1 sequence (Q16548 whole entry)
Nature of the data set: Binding affinity to N-terminal His6-tagged recombinant human Bfl-1 (1 to 151 residues) expressed in Escherichia coli BL21-Gold (DE3) cells assessed as Kinact/ki incubated for 10 to 90 mins by MS analysis. To be noted: time 10-90 min.

Broadly, the IC50 is the point on the concentration scale where inhibition reaches its midpoint. As a reminder, the logD is the decadic logarithm of the distribution of all forms, ionised or not, between an organic phase and buffer at a given pH. Read a low logD as lower lipophilicity. By half-life is commonly meant the time in which the quantity being followed falls by half.

With `C=CC(=O)N1CCC[C@@H]1c1ccccc1`, the IC50 at Bcl-2-related protein A1 was 480 µM. The compound also returned a logD in data set [1] of 1.7. Moreover, the half-life in data set [2] amounted to 13.7 h. The K in data set [3] worked out at 0.7 M⁻¹ s⁻¹.
`C=CC(=O)N(C)[C@@H](c1ccc(Cl)cc1)C1CCOCC1` (racemic): the IC50 at Bcl-2-related protein A1 is 90.9 µM. Further, the K in data set [3] came out at 0.8 M⁻¹ s⁻¹.
The corresponding values for `C=CC(=O)N1C[C@@H](Oc2cc(Cl)c(F)cc2C#N)[C@H]1CCC` (racemic) are 10.4 µM and 9.5 M⁻¹ s⁻¹.
For `C=CC(=O)N(Cc1ccc(OC)cc1)c1cccc(Cl)c1` the same measures were 23.4 µM and 7.5 M⁻¹ s⁻¹.
For `C=CC(=O)Nc1cc(CN2CCCC2)ccc1-c1ccc(OC)cc1C` the same measures were 18 µM and 6.8 M⁻¹ s⁻¹.
As for `C=CC(=O)N(Cc1ccccc1OCC(N)=O)c1ccc(Cl)cc1`, on Bcl-2-related protein A1, the IC50 stood at 16.8 µM. Also, the K in data set [3] was found to be 5.5 M⁻¹ s⁻¹.
